Measurements as given in US10947260B2, “Phosphinolactone derivatives and pharmaceutical uses thereof” (INSTITUT NATIONAL DE LA SANTE ET DE LA RECHERCHE MEDICALE …, priority 2016, dated 2021).

Key:
[1] = tested on: mice treated with peptide Aβ25-35; experiment: In vivo screening of derivatives as neuroprotectors (spontaneous alternation, passive avoidance, ROS level), Aβ25-35 model
Experimental: FIG. 7: Screening of phosphinolactones as neuroprotectors in mice treated with peptide Aβ25-35: (a) spontaneous alternation; (b) passive avoidance step-through latency; (c) Levels of reactive oxygen species in hippocampus. The mice were given compound 3b (0.3, 0.7 mg/kg IP) or a dose of each compound (0.3 mg/kg IP) 20 min before I′Aβ25-35 or the control peptide Sc.Aβ (9 nmol ICV). The animals were tested in the Y-maze on Day 7 after the ICV injections and for passive avoidance on Days 8-9, and then sacrificed. In each graph at (a-c), the 50% protection level compared with the deficit induced by Aβ25-35 is plotted as a dotted line. It is to be noted that at (a), the column represents the median and the error bars represent the deviations 25%-75% (=asymmetric deviations). n=12 at (a, b) and 5-6 at (c). ANOVA on groups 1-4: F(3.63)=7.95, p<0.001 at (b); H=24.1, p<0.0001 at (c); F(3.44)=6.33, p<0.01 at (d). *p<0.05, **p<0.01, ***p<0.001 compared with group (Sc.Aβ+V); #p<0.05, ##p<0.01, ###p<0.001 compared with group (Aβ25-35+V); Dunnett test at (a, c) and Dunn at (b). The values of the groups 5-12 (screened compounds) were analysed by t-test at (a, c) or Mann-Whitney at (b).
From the molecules derived from the synthesis, a panel of 8 derivatives was selected and screened for potential neuroprotective efficacy. The compounds were injected at a dose of 0.3 mg/kg IP, i.e. the maximum non-active dose of 3b and compared with 3b injected at 0.3 and 0.7 mg/kg IP. The compounds were injected […] before the Aß25-35 peptide, and the mice were tested for spontaneous alternation on Day 7, passive avoidance on Days 8 and 9 and the ROS level was measured in the hippocampus (FIG. 7). For each response (spontaneous alternation: FIG. 7a; step-through latency in passive avoidance: FIG. 7b, and DCF fluorescence level: FIG. 7c), a 50% level of the effect between the values of the ScAß and Aß25-35 animals was taken as criterion of efficacy. […] Compound 3c is an isomer at the position of the chlorine atom of 3b. Regarding compound 3n, this has a 5-pyrimidyl group attached to the phosphorus atom, and for compound 3l it is a 4-pyridinyl group.

APPSwe mice = experiment: Spatial learning in pool, APPSwe mice; format: in vivo
Experimental: FIG. 9: Spatial learning in pool (a-c) and object recognition (d-f) for APPSwe mice after 2-month treatment with compound 3b. Pool: acquisition profiles of WT mice treated with V and 3b (2 mg/kg) (a) or APPSwe mice (b). (c) Presence in training quadrant (T) and mean in the other quadrants (o) during trial test performed 48 h after the last training session. Friedman non-parametric ANOVA with repeated measures: Fr=21.7, p<0.001 for the group WT/V, Fr=21.8, p<0.001 for the group WT/3b at (a); Fr=13.0, p<0.05 for group APPSwe/V, Fr=12.2, p<0.05 for group APPSwe/3b at (b). Object recognition: Number of contacts with the objects during sessions 2 and 3 (d) and preferences for object at position 2 computed as contacts (e) or contact time (f). ^∘ p<0.05, ^∘∘ p<0.01 compared with chance level: 15 s at (c), 50% at (e, f), One Sample t-test. ^$ p<0.05, ^$$ p<0.01, ^$$$ p<0.001 compared with the mean of the other quadrants (o) at (c). *p<0.05 compared with group WT/V at (d).
FIG. 11: Spatial learning in pool (a-c) and object recognition (d-f) for APPSwe mice after 2-month treatment with compound 3c. Pool: acquisition profiles of WT mice treated with V and 3c (2 mg/kg) (a) or APPSwe mice (b). (c) Presence in training quadrant (T) and mean in the other quadrants (o) during the trial test performed 48 h after the last training session. Friedman non-parametric ANOVA with repeated measures: Fr=20.7, p<0.001 for group WT/V, Fr=17.5, p<0.001 for group WT/3c at (a); Fr=11.4, p<0.05 for group APPSwe/V, Fr=13.6, p<0.01 for group APPSwe/3b at (b). […]
The pool was a circular water chamber (diameter 140 cm, height 40 cm). […] Swims could be recorded using Videotrack® ViewPoint software, (Champagne-au-Mont-d'Or, France), with trajectories analysed for time and distance. […]
Acquisition phase: this consisted of 3 swims per day for 5 days with an interval of 20 min. […] Swim latency was measured. […] The median of swim times was calculated for each day and expressed for the experimental group as a mean±SEM.
Recall phase: a trial test was conducted […] after the last acquisition session. […] The session was monitored by video and the time spent in the training quadrant (where the platform had been placed) was measured.
After 2-month treatment, the mice were examined with a complex long-term spatial learning test, the locating of an invisible platform in a circular pool 1.5 m in diameter, followed by the object recognition test. […] 48 h after the last acquisition session, the platform was withdrawn from the pool and the time spent in each of the quadrants of the pool was analysed. […]

[2] = tested on: mice treated with Aβ25-35
Experimental: The hippocampi were homogenized in 50 mM Tris-150 mM NaCl solution, pH 7.5, and sonicated for 20 s. After centrifugation at 16 100 g for 15 min at 4° C., the supernatants were used for ELISA assays in accordance with the manufacturer's instructions (ThermoScientific, Courtaboeuf, France; USCN, Wuhan, China). For each assay, absorbance was read at 450 nm and the concentration of each sample calculated in comparison with a standard curve. The results are expressed in ng or pg per mg of tissue and expressed as % of the control group.
On Day 9, the animals were sacrificed, the brains removed, the hippocampi and cortex dissected and frozen.

[3] = 1.5 mg/kg IP, control ScAβ animals

Structure (SMILES)	maximum non-active dose of 3b ([1]; IP) [mg/kg]	spatial performance of WT mice at trial test (APPSwe mice; 2 mg/kg/j IP)	Bax in control animals ScAβ [2, 3]	Bax/Bcl2 ratio in control animals ScAβ [2, 3]	Bcl2 levels ([2]; 0.3-1.5 mg/kg IP)	criterion of efficacy: 50% level of the effect between ScAβ and Aβ25-35 animals (spontaneous alternation, step-through latency, DCF fluorescence) ([1]; 0.3 mg/kg IP)	efficacy compared with 3b ([1]; Aβ25-35 model)	efficiency in the screening of the molecules in the series ([1]; Aβ25-35 model)	spatial performance of WT mice at trial test (APPSwe mice; 1 mg/kg/d)	pool acquisition profile, APPSwe animals (APPSwe mice; 1 mg/kg/d, 2-month treatment)	presence in the training quadrant at trial test, APPSwe mice (APPSwe mice; 1 mg/kg/d, 48 h after last training)
CC1(C)COP(=O)(c2cccc(Cl)c2)C(C)(C)N1 (racemic) [Compound 3b, (±)-2-(3-Chlorophenyl)-2-oxo-3,3,5,5-tetramethyl-[1,4,2]-oxazaphosphinane]	0.3	decrease is noted in spatial performance	tends to increase Bax	tends to increase	no effect						
CC1(C)COP(=O)(c2ccc(Cl)cc2)C(C)(C)N1 (racemic) [Compound 3c, (±)-2-(4-Chlorophenyl)-2-oxo-3,3,5,5-tetramethyl-[1,4,2]-oxazaphosphinane]						met the criterion for the 3 parameters	as effective at 0.3 mg/kg IP as 3b at 0.7 mg/kg IP	highly efficient	decrease is noted in spatial performance	did not affect the acquisition profile	significantly restored preferred presence in the training quadrant
